Earlier results as cited in PMC11975010 (Drug Design, Development and Therapy, 2025).
Like-named read-outs stand apart in the source and are kept apart here. Blank lines part the entries; values can stand above or below the compound they belong to.

Tests used:
[1] = poor solubility in water and high permeability
[2] = at 25 °C
[3] = not given; remark: listed apart in the source
[4] = administered as HP-β-CD complex formulation

Action duration: up to 12 hours | Biopharmaceutical Classification System class [1]: class II
Structure (SMILES): COc1ccc(CN=c2[nH]c(N3CCC[C@H]3CO)ncc2C(=O)NCc2ncccn2)cc1Cl [AVA, Avanafil]

Aqueous solubility [2]: approximately 600 mg/mL
Structure (SMILES): CC(O)COC[C@H]1O[C@@H]2O[C@H]3[C@H](O)[C@@H](O)[C@@H](O[C@H]4[C@H](O)[C@@H](O)[C@@H](O[C@H]5[C@H](O)[C@@H](O)[C@@H](O[C@H]6[C@H](O)[C@@H](O)[C@@H](O[C@H]7[C@H](O)[C@@H](O)[C@@H](O[C@H]8[C@H](O)[C@@H](O)[C@@H](O[C@H]1[C@H](O)[C@H]2O)O[C@@H]8COCC(C)O)O[C@@H]7COCC(C)O)O[C@@H]6COCC(C)O)O[C@@H]5COCC(C)O)O[C@@H]4COCC(C)O)O[C@@H]3COCC(C)O (stereo partly drawn) [HP-β-CD, hydroxypropyl-beta-cyclodextrin]

Structure (SMILES): CC[C@@]1(O)C(=O)OCc2c1cc1n(c2=O)Cc2cc3ccccc3nc2-1 [camptothecin]
Lactone ring hydrolysis ([3]; before stabilization in HP-β-CD): 40% | Lactone ring hydrolysis ([3]; stabilized in HP-β-CD cavities): 6.7%

Clearance [4]: lower clearance
Structure (SMILES): C[C@@H]1C[C@H]2[C@@H]3CCC4=CC(=O)C=C[C@]4(C)[C@@]3(F)[C@@H](O)C[C@]2(C)[C@@]1(O)C(=O)CO [dexamethasone]
